Source: publication PMC9325719 (Nature Communications, 2022)

Molecular target: Na+-NQR (Na+-pumping NADH-ubiquinone oxidoreductase), inhibitor site at NqrB N-terminal region (Vibrio cholerae, UniProt A5F5X0, E157A)
Settings: substrates NADH and ubiquinone-1; 50% inhibition not reached at highest concentration; mutant activity 50-60% lower than wild type

CCCCCCCC[C@H]1O[C@H]1C/C=C/C=C/[C@H](O)CC(=O)NC1=C[C@](C)(CC)OC1=O [korormicin A]
IC50: > 2000 nM
